Data on one compound can be found in article PMC3137752 (Alcohol (Fayetteville, N.Y.), 2010).

SMILES strings stand for the structures.

The target of assay [1] is α6-100R-β3γ2 (α6β3γ2s) (Rattus norvegicus, UniProt P18508+P30191). The experiment in a line: radioligand association/dissociation kinetics, filtration. The class given is binding.
In assay [2] the target is α6-100R-β3γ2 (α6β3γ2s) (Rattus norvegicus, UniProt P18508+P30191, P30191:R119Q). Described as above. The class given is binding.
Chain of α6-100R-β3γ2 (α6β3γ2s) (Rattus norvegicus, UniProt P18508+P30191, P30191:R119Q) (P30191 20-453 R119Q): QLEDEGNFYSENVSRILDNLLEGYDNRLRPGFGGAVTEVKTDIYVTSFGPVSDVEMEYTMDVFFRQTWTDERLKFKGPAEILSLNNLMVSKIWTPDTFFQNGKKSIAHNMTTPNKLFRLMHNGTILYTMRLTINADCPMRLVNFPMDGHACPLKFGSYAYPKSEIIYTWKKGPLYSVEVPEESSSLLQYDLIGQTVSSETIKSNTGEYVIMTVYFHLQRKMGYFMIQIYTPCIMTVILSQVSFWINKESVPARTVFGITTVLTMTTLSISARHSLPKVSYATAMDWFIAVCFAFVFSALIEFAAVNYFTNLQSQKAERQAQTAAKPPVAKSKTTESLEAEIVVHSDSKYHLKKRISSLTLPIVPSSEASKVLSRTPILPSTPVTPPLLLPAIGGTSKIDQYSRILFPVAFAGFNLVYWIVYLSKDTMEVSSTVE
Chain of α6-100R-β3γ2 (α6β3γ2s) (Rattus norvegicus, UniProt P18508+P30191, P30191:R119Q) (P18508 39-466): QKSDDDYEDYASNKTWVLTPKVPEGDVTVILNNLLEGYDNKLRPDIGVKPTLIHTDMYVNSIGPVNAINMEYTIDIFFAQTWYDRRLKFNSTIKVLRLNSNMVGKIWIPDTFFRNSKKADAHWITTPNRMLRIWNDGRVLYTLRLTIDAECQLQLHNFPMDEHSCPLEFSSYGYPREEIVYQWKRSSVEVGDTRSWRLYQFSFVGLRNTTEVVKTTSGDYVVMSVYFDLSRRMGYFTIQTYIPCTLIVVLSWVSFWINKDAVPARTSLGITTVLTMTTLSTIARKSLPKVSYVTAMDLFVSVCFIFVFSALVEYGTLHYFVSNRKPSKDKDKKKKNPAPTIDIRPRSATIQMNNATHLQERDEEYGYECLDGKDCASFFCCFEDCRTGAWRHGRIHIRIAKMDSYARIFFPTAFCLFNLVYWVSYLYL
Chain of α6-100R-β3γ2 (α6β3γ2s) (Rattus norvegicus, UniProt P18508+P30191, P30191:R119Q) (P63079 26-473 partner): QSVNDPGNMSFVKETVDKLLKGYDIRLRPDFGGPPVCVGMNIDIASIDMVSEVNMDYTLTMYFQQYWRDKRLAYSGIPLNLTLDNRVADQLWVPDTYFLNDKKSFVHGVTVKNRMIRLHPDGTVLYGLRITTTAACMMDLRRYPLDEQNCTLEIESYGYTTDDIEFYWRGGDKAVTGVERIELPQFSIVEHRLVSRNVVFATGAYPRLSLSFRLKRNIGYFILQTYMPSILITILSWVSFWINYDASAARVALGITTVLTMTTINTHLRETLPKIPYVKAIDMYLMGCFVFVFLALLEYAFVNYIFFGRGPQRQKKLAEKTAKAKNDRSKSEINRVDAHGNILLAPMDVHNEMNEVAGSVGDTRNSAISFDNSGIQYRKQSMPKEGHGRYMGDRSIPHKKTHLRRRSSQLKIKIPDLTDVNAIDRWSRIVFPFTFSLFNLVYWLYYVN

Chain of α6-100R-β3γ2 (α6β3γ2s) (Rattus norvegicus, UniProt P18508+P30191) (P30191 20-453): as the sequence (P30191 20-453 R119Q) above, with Q100R counted along it
Chain of α6-100R-β3γ2 (α6β3γ2s) (Rattus norvegicus, UniProt P18508+P30191) (P18508 39-466): as the sequence (P18508 39-466) above
Chain of α6-100R-β3γ2 (α6β3γ2s) (Rattus norvegicus, UniProt P18508+P30191) (P63079 26-473 partner): as the sequence (P63079 26-473 partner) above

The term Kd denotes the free concentration of one partner at which half of the binding sites on the other are occupied at equilibrium, for simple one-to-one binding. High values mean lower affinity, low ones higher affinity. For `CCOC(=O)c1ncn2c1CN(C)C(=O)c1cc(N=[N+]=[N-])ccc1-2` [[^3H]Ro 15-4513], the values for the Kd in assay [1] and in assay [2] were 2.4 ± 0.4 nM and 1 ± 0.1 nM, respectively.
